Test [1] has as its target DGKα (Homo sapiens (Human), UniProt P23743). Description: In vitro DGKα inhibition assay (ADP-Glo). In kind it is biochemical. The settings on record: His-tagged human recombinant enzyme, 0.1 nM DGKα, 50 μM ATP, 20 μM DLG, 90 minute incubation. The procedure, abridged: (§1)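 His-tagged human DGKα (0.1 nM, 50 μM ATP) or DGKζ (0.4 nM, 30 μM ATP), each with 20 μM DLG, in Tris pH 7.5 buffer with CHAPS, Mg2+, Ca2+.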

Test [2] addresses DGKζ (Homo sapiens (Human), UniProt Q13574). The test is described as follows: In vitro DGKζ inhibition assay (ADP-Glo). As to conditions: His-tagged human recombinant enzyme, 0.4 nM DGK, 30 μM ATP, 20 μM DLG, 90 minute incubation. In kind it is biochemical. In a few lines: as §1

DGKα, sequence (P23743 whole entry): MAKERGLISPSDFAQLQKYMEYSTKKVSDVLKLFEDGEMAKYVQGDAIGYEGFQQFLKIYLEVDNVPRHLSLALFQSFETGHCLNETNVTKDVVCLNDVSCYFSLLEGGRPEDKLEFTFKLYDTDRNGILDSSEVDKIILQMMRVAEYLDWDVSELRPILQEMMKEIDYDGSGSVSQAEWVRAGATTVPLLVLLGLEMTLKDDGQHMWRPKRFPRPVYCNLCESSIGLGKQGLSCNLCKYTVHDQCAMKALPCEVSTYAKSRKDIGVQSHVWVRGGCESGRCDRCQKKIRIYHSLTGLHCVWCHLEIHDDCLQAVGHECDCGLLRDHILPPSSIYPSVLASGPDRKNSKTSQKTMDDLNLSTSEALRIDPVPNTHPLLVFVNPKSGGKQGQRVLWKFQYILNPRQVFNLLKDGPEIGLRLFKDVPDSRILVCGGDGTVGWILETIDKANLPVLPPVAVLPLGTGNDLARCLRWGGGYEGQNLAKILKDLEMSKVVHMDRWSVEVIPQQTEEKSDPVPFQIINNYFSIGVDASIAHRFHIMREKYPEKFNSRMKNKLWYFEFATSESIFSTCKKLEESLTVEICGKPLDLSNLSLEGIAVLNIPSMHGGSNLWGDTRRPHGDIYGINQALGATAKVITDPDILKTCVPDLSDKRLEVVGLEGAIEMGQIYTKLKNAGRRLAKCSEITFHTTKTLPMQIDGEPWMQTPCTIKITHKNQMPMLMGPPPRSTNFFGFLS
DGKζ, sequence (Q13574 whole entry): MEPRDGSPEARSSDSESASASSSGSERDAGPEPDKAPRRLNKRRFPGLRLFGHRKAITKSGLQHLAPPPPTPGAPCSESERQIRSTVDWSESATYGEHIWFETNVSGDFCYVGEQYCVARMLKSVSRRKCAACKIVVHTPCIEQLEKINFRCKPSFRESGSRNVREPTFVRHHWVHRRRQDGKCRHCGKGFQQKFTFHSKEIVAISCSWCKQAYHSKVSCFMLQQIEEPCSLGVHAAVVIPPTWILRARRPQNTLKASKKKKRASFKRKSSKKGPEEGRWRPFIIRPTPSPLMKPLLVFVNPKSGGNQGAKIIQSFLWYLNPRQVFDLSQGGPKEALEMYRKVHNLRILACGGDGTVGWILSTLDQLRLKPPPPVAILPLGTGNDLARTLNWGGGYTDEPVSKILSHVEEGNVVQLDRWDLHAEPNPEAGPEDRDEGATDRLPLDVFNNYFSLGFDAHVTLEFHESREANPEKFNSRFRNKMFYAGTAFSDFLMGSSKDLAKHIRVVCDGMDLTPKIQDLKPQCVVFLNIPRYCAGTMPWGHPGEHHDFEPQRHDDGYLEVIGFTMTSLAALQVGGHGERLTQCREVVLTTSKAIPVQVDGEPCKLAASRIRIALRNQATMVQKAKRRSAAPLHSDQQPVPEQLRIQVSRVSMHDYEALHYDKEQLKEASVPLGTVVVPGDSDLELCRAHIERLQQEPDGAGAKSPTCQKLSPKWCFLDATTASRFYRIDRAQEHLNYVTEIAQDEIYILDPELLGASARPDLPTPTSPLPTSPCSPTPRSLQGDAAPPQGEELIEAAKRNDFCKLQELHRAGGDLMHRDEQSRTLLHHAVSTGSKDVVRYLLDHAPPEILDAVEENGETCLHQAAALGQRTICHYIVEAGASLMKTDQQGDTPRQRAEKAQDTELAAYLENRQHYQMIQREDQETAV

The IC50 is the point on the concentration scale where inhibition reaches its midpoint. `COc1cccc([C@@H](C(C)C)N2C[C@H](C)N(c3nc4nncn4c4c3nc(C)n4C[C@@H]3CCCO3)C[C@H]2C)c1` [Example 99, 4-((2S,5R)-4-((R)-1-(3-methoxyphenyl)-2-methylpropyl)-2,5-dimethylpiperazin-1-yl)-2-methyl-1-(((S)-tetrahydrofuran-2-yl)methyl)-1H-[1,2,4]triazolo[3,4-b]purine]: the IC50 in test [1] and in test [2] was no more than 20 nM each time.

In the case of `C[C@@H]1CN(c2nc3nncn3c3c2ncn3CCN(C)C)[C@@H](C)CN1C(c1ccc(C(F)F)cc1)c1ccc(C(F)F)cc1` [Example 100, 2-(4-((2S,5R)-4-(Bis(4-(difluoromethyl)phenyl)methyl)-2,5-dimethylpiperazin-1-yl)-1H-[1,2,4]triazolo[3,4-b]purin-1-yl)-N,N-dimethylethan-1-amine], the IC50 in test [1] and in test [2] was no more than 20 nM each time.

For `C[C@@H]1CN(c2nc3nncn3c3c2ncn3CCN(C)C)[C@@H](C)CN1[C@@H](c1ccc(C(F)(F)F)cc1)c1ccc(C(F)(F)F)cn1` [Example 101, 2-(4-((2S,5R)-2,5-Dimethyl-4-((S)-(4-(trifluoromethyl)phenyl)(5-(trifluoromethyl)pyridin-2-yl)methyl)piperazin-1-yl)-1H-[1,2,4]triazolo[3,4-b]purin-1-yl)-N,N-dimethylethan-1-amine], the concentration for half-maximal inhibition (IC50) in test [1] and in test [2] was no more than 20 nM each time.

Regarding `C[C@@H]1CN(c2nc3nncn3c3c2ncn3CCN(C)C)[C@@H](C)CN1[C@H](c1ccc(C(F)(F)F)cc1)c1ccc(C(F)(F)F)cn1` [Example 102, 2-(4-((2S,5R)-2,5-dimethyl-4-((R)-(4-(trifluoromethyl)phenyl)(5-(trifluoromethyl)pyridin-2-yl)methyl)piperazin-1-yl)-1H-[1,2,4]triazolo[3,4-b]purin-1-yl)-N,N-dimethylethan-1-amine], the IC50 in test [1] and in test [2] was no more than 20 nM in each case.

For the molecule `Cc1nc2c(N3C[C@@H](C)N(C(c4ccc(Cl)cc4)c4ccc(Cl)cc4)C[C@@H]3C)nc3nncn3c2n1C[C@@H]1CCCO1` [Example 105, 4-((2S,5R)-4-(Bis(4-chlorophenyl)methyl)-2,5-dimethylpiperazin-1-yl)-2-methyl-1-(((S)-tetrahydrofuran-2-yl)methyl)-1H-[1,2,4]triazolo[3,4-b]purine], the IC50 in test [1] and in test [2] was no more than 20 nM throughout.

Take `C[C@@H]1CN(c2nc3nncn3c3c2nnn3C[C@H]2CCCO2)[C@@H](C)CN1C(c1ccc(Cl)cc1)c1ccc(Cl)cc1` [Example 106, 4-((2S,5R)-4-(Bis(4-chlorophenyl)methyl)-2,5-dimethylpiperazin-1-yl)-1-(((R)-tetrahydrofuran-2-yl)methyl)-1H-[1,2,3]triazolo[4,5-e][1,2,4]triazolo[4,3-a]pyrimidine]: the IC50 in test [1] and in test [2] was no more than 20 nM throughout.

Take `C[C@@H]1CN(c2nc3nncn3c3c2ncn3CCN(C)C)[C@@H](C)CN1C(c1ccc(Cl)cc1)c1ccc(Cl)cc1` [Example 107, 2-(4-((2S,5R)-4-(Bis(4-chlorophenyl)methyl)-2,5-dimethylpiperazin-1-yl)-1H-[1,2,4]triazolo[3,4-b]purin-1-yl)-N,N-dimethylethan-1-amine]: the half-inhibitory concentration (IC50) in test [1] and in test [2] was no more than 20 nM in each case.

For the molecule `Cc1nc2c(N3C[C@@H](C)N(C(c4ccc(Br)cc4)c4ccc(Br)cc4)C[C@@H]3C)nc3nncn3c2n1C[C@@H]1CCCO1` [Example 108, 4-((2S,5R)-4-(Bis(4-bromophenyl)methyl)-2,5-dimethylpiperazin-1-yl)-2-methyl-1-(((S)-tetrahydrofuran-2-yl)methyl)-1H-[1,2,4]triazolo[3,4-b]purine], the IC50 in test [1] and in test [2] was no more than 20 nM in each case.

For the molecule `C[C@@H]1CN(c2nc3nncn3c3c2ncn3CCN(C)C)[C@@H](C)CN1C(c1ccc(Br)cc1)c1ccc(Br)cc1` [Example 109, 2-(4-((2S,5R)-4-(Bis(4-bromophenyl)methyl)-2,5-dimethylpiperazin-1-yl)-1H-[1,2,4]triazolo[3,4-b]purin-1-yl)-N,N-dimethylethan-1-amine], the half-inhibitory concentration (IC50) in test [1] and in test [2] was no more than 20 nM each time.
